Test results taken from patent publication US9956187B2 (priority 2014, dated 2018).
Where a name gives a salt, the structure may show the parent alone.

Legend:
[1] = Solubility in 20% cyclodextrin by HPLC; assay type: physicochemical; conditions: aqueous with cosolvent or surfactant or cyclodextrin, thermodynamic from solid, room temperature
From the text: It was filtered with 0.2 μm PTFE syringe filter after stirring for 24 hrs.

[2] = hydrobromide salt; cited from earlier work
[3] = tested on: chronic constriction injury (CCI) rats; assay: Tactile allodynia, paw withdrawal threshold in CCI model; assay type: in vivo, rat; conditions: 3 mg/kg IP daily, days 1-10 after CCI, vs NS group, P<0.05
Procedure: CCI procedures on the sciatic nerve of male SD rats were performed as previously described. Briefly, after rats were anesthetized by i.p. injection of sodium pentobarbital (40 mg/kg), the right sciatic nerve of the mid-thigh level was exposed. Chromic gut 4-0 was loosely tied around the nerve for 4 ligatures with about 1 mm between knots. The ligation was performed to just barely reduce the diameter of sciatic nerve. […] In the sham group, the sciatic nerve was exposed without ligation. The incisions of rats were closed in layers. After recovery from anesthesia, rats were housed individually in the clear plastic cages with soft bedding covered with 3-6 cm of sawdust.
Same volume of normal saline (2 ml) was injected in the other two groups at the same time.
The paw withdrawal threshold (PWT) was used to evaluate mechanical allodynia for nociceptive response with Von Frey filaments. The rats were placed in transparent plexiglass cage with a wire mesh floor. After acclimating to their environments for 30 minutes, each filament was applied perpendicularly to the plantar surface of the right hind paw. The end point was determined as paw withdrawal accompanied by biting, head turning and/or licking. The force (in gram, g) needed for this reaction was recorded. […]

[4] = tested on: morphine dependent rats; assay: Astrocyte activation in nucleus accumbens; assay type: in vivo, rat
[5] = target: T1, norepinephrine transporter (NET) (Homo sapiens, UniProt P23975); assay: Secondary radioligand binding assay (affinity); conditions: mean±SE
T1 construct: expressed in transfected cells
Procedure: The secondary binding assay was performed only when the inhibition in the primary screen was over 50%. A secondary binding assay was utilized to determine the binding affinity for the identified receptor.
50 μL of a crude membrane fraction of cells expressing the respective receptors were applied to each well. Reaction incubation, harvesting and radioactivity measurement from the primary assay were repeated. Affinity is expressed as pKi (−log Ki).

T1 sequence (P23975 whole entry): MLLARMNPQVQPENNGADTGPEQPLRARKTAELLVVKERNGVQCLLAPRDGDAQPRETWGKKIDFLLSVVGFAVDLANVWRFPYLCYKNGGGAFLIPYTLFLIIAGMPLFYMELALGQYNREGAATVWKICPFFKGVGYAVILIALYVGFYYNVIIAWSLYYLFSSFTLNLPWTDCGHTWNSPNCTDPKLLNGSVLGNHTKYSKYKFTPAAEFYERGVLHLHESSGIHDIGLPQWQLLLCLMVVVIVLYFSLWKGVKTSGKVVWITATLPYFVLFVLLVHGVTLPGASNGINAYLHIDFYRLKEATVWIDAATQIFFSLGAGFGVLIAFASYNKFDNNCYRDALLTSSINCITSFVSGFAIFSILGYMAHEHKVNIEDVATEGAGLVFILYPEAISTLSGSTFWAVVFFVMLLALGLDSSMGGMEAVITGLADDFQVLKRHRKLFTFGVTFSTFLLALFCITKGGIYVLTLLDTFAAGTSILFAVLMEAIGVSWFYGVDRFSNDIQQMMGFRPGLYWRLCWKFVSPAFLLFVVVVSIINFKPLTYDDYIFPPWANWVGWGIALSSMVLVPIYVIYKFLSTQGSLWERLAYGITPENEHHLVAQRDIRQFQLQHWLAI

C[C@@]12CCCCC[C@@H](Cc3ccc(O)cc31)[C@@H]2N [Dezocine, (−)-13β-amino-5,6,7,8,9,10,11,12-octahydro-5α-methyl-5,11-methanobenxocyclodecen-31-ol, hydrobromide]
solubility at 24 h ([1]; 20% 2-Hydroxypropyl-β-cyclodextrin (HPBCD)): 18 ± 1 mg/mL
solubility at 24 h ([1]; 20% 2-Hydroxypropyl-γ-cyclodextrin (HPGCD)): 24 ± 1 mg/mL
solubility of the salt [2]: 20 mg/mL
paw withdrawal threshold (PWT) [3]: increased markedly
astrocyte activation in nucleus accumbens [4]: significantly inhibited
pKi NET [5]: 6.00±0.10
